These results are taken from patent publication US5972907A, “Synthetic core 2-like branched structures containing GalNAc-lewis^x and Neu5Acα2-3Galβ1-3GalNAc sequences as novel ligands for selectins” (Health Research, Inc., priority 1997, dated 1999).

In assay [1] the target is T1, L-Selectin (Homo sapiens, UniProt P14151).
T1 sequence (P14151 39-372): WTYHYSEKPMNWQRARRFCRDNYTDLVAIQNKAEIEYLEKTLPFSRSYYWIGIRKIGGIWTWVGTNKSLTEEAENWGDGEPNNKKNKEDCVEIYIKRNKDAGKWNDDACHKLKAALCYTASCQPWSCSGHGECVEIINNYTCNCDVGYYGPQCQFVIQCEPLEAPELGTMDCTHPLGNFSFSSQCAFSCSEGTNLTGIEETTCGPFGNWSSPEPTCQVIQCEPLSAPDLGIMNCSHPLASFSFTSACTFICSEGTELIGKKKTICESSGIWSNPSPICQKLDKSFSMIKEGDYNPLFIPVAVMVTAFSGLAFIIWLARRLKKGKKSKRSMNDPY
To be noted: cited from earlier work; for affinity for L-selectin: recent study / inhibition studies of Scudder et al.

Assay [2] deals with T1, L-Selectin. The assay is described as follows: ELISA inhibition of recombinant L-selectin binding to immobilized SLe^x. To be noted: mean of 3 determinations, read-out: IC50 Values Against SLe^x, L-Selectin. The protocol:
(§1) Relative Inhibitory Properties of Branched Chains Including Neu5Ac and/or GalNAcLe^x Against Recombinant Selectins Binding to Immobilized SLe^x
(§2) ELISA inhibition studies were done as previously reported conditions. Ic50 values against immobilized SLe^x are the mean values of 3 determinations and were calculated according to published methodology.
A general note: In an ELISA, binding on a coated surface is turned into a signal by an enzyme label.

In assay [3] the target is T2, P-Selectin (Homo sapiens, UniProt P16109).
T2 sequence (P16109 42-830): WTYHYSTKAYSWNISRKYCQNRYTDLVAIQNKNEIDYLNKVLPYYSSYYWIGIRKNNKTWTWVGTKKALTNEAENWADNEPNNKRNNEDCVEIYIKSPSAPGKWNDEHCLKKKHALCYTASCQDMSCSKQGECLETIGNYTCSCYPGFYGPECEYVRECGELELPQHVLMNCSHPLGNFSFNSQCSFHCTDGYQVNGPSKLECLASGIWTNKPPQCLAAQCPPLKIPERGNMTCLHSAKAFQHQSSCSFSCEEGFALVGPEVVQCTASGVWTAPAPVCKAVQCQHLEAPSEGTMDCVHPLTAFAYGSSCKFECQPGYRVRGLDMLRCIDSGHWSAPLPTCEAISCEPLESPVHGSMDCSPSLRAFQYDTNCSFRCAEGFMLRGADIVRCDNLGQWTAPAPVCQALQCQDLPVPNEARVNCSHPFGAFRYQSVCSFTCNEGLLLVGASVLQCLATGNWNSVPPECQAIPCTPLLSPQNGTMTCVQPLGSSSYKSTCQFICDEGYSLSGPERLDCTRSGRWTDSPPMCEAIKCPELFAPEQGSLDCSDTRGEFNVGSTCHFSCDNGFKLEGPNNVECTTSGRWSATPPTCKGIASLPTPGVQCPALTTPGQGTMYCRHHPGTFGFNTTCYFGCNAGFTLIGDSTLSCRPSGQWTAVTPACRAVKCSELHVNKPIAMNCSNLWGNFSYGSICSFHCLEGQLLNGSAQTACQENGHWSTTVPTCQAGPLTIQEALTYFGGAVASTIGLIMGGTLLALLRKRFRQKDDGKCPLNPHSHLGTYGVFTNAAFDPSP
The assay is described as follows: ELISA inhibition of recombinant P-selectin binding to immobilized SLe^x. To be noted: for pIC50: recombinant selectin, immobilized SLe^x, ELISA, mean of 3 determinations, read-out: IC50 Values Against SLe^x, P-Selectin. As for the experimental part: as §1, §2

The target in assay [4] is T3, E-Selectin (Homo sapiens, UniProt P16581).
T3 sequence (P16581 22-610): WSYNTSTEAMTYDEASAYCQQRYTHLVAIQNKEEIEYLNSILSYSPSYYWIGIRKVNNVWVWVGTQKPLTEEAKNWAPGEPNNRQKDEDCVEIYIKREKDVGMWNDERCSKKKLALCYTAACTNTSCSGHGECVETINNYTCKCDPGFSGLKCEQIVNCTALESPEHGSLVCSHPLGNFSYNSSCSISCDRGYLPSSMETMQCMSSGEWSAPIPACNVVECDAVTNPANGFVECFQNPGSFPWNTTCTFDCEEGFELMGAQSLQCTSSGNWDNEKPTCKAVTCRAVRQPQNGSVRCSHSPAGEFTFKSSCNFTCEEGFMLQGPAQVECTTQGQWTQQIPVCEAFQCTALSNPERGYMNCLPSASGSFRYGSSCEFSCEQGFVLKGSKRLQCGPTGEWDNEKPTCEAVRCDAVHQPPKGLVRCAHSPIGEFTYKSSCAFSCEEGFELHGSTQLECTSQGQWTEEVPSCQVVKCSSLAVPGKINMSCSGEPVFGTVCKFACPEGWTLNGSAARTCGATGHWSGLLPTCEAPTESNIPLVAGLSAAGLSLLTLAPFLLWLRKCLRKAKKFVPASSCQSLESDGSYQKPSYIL
The experiment in a line: ELISA inhibition of recombinant E-selectin binding to immobilized SLe^x. To be noted: mean of 3 determinations, read-out: IC50 Values Against SLe^x, E-Selectin. The protocol: as §1, §2

The target in assay [5] is T3, E-Selectin. To be noted: isolated from human cell produced Protein C; cited from earlier work.
Assay [6] concerns the target T2, P-Selectin. The experiment in a line: Other studies of binding (unspecified; P-selectin context). To be noted: no details given.

pIC50: −log10 of the molar value.

On to “NeuAcα2→3Galβ1→4(Fucα1→3)SE-3GlcNAcβ1→3Gal”, for which the “affinity for L-selectin” value at L-Selectin [1] is listed as “lacked a high affinity”.
As usually defined, the pIC50 is the negative decadic logarithm of the IC50, by convention in mol/L. Regarding `CO[C@H]1O[C@H](CO[C@@H]2O[C@H](CO)[C@@H](O[C@@H]3O[C@H](CO)[C@H](O)[C@H](O)[C@H]3NC(C)=O)[C@H](O[C@@H]3O[C@@H](C)[C@@H](O)[C@@H](O)[C@@H]3O)[C@H]2NC(C)=O)[C@H](O)[C@H](O[C@@H]2O[C@H](CO)[C@H](O)[C@H](O)[C@H]2O)[C@H]1NC(C)=O` [Compound 14, Methyl O-(2-acetamido-2-deoxy-β-D-galactopyranosyl)-(1→4)-O-[(α-L-fucopyranosyl)-(1→3)-O]-(2-acetamido-2-deoxy-β-D-glucopyranosyl)-(1→6)-O-[(β-D-galactopyranosyl)-(1→3)-O]-2-acetamido-2-deoxy-α-D-galactopyranoside], the results for the pIC50 on L-Selectin [2], at P-Selectin [3] and on E-Selectin [4] were 3.52, 3.40 and less than 3.30, respectively.
Consider sialyl Lewis^x [reference compound], for which the negative logarithm of the IC50 (pIC50) at L-Selectin [2] was 3.22.
For the compound “GalNAcβ1→4(Fucα1→3)GlcNAcβ1→Manα1→3/6Manβ1→4GlcNAcβ1→4GlcNAc”, the “inhibition of E-selectin” value on E-Selectin [5] is recorded as “potent inhibitor”.
Take `CO[C@H]1O[C@H](CO[C@@H]2O[C@H](CO)[C@@H](O[C@@H]3O[C@H](CO)[C@H](O)[C@H](O)[C@H]3NC(C)=O)[C@H](O[C@@H]3O[C@@H](C)[C@@H](O)[C@@H](O)[C@@H]3O)[C@H]2NC(C)=O)[C@H](O)[C@H](O[C@@H]2O[C@H](CO)[C@H](O)[C@H](OS(=O)(=O)O)[C@H]2O)[C@H]1NC(C)=O` [Compound 19]: at P-Selectin [6], the “binding in other studies” value was “even greater binding”. In addition, the pIC50 was 3.30 on L-Selectin [2], less than 3.30 at P-Selectin [3] and less than 3.30 at E-Selectin [4]. Also, the “binding ability relative to sialyl Lewis^x for P-selectin” value at P-Selectin [3] (compared with sialyl Lewis^x) is “about six”.
As to `CO[C@@H]1O[C@H](CO)[C@@H](O[C@@H]2O[C@H](CO)[C@H](O)[C@H](O)[C@H]2NC(C)=O)[C@H](O[C@@H]2O[C@@H](C)[C@@H](O)[C@@H](O)[C@@H]2O)[C@H]1NC(C)=O` [Compound 8b], the pIC50 on L-Selectin [2] is 3.52; on P-Selectin [3], 3.40; at E-Selectin [4], less than 3.30.
Take `COC1O[C@H](CO)[C@@H](O[C@@H]2O[C@H](COS(=O)(=O)O)[C@H](O)[C@H](O[C@]3(C(=O)O)C[C@H](O)[C@@H](NC(C)=O)[C@H]([C@H](O)[C@H](O)CO)O3)[C@H]2O)[C@H](O[C@@H]2O[C@@H](C)[C@@H](O)[C@@H](O)[C@@H]2O)[C@H]1NC(C)=O` (stereo partly shown) [NeuAcα2→3SE-6 Galβ1→4(Fucα1→3)GlcNAcOMe]: on L-Selectin [1], the “affinity for L-selectin” value was “lacked a high affinity”. For the same compound, the “ligand quality for L-selectin” value at L-Selectin [1] (recent study) is recorded as “not a superior ligand”.
In the case of `CO[C@H]1O[C@H](CO[C@@H]2O[C@H](CO)[C@@H](O[C@@H]3O[C@H](CO)[C@H](O)[C@H](O)[C@H]3NC(C)=O)[C@H](O[C@@H]3O[C@@H](C)[C@@H](O)[C@@H](O)[C@@H]3O)[C@H]2NC(C)=O)[C@H](O)[C@H](O[C@@H]2O[C@H](CO)[C@H](O)[C@H](O[C@]3(C(=O)O)C[C@H](O)[C@@H](NC(C)=O)[C@H]([C@H](O)[C@H](O)CO)O3)[C@H]2O)[C@H]1NC(C)=O` [Compound 16], the pIC50 is 3.98 on L-Selectin [2], 4.07 on P-Selectin [3] and less than 3.30 at E-Selectin [4].
